Our source for the viability values is article PMC12040169 (PLOS Biology, 2025).

This data set is described as follows: in vitro. The following applies: human, hela cells, % viability.

`OC1(c2cccnc2F)CCN(Cc2cc(F)cc(F)c2)CC1` [CBK285375]: the viability at 28.5 h, 10 µM was 81.5%.
The same measure, in the same setting: for `COc1ccc(CCNC(=O)C(=O)Nc2ccc(C)c(C)c2)cc1` [CBK263222] the value was 91.1%; for `CCOC(=O)CNC1CCCCC1` [CBK023276C], 91%; for `OCC(O)/C=N/Nc1nc(N2CCCCC2)nc(N2CCCCC2)n1` (centres unmarked) [CBK019423], 107%.
As to `COc1ccc(CN2C(=O)CO[C@H]3CN(C(=O)COc4ccccc4)C[C@H]32)cc1` [CBK289262], the viability at 28.5 h, 10 µM was 108%.
`CN1CCCc2c1oc1c(OCc3cccnc3)cccc1c2=O` [CBK007904]: the viability at 28.5 h, 10 µM came to 92.1%.
Still for that read-out and setting: for `O=c1c2ccccc2nc(S)n1CC(O)c1ccccc1` (centres unmarked) [CBK288386] the value was 85.8%; for `CC(=O)N1c2ccc(-c3cc4ccccn4c3)cc2CC1C` (centres unmarked) [CBK285254], 79.9%.
As for `CC(=O)N1CCC2(CC1)OCc1cc(-c3cncc4ccccc34)ccc1O2` [CBK061010], under “bulk resorufin, single well”, the viability at 28.5 h, 10 µM was 90.4%.
`Cc1[nH]c2ccccc2c1C(=O)CSc1nc(N)cc(=O)[nH]1` [CBK297511]: the viability at 28.5 h, 10 µM was found to be 103%.
On to `CC1CC(C)CN(C(=O)c2ccc(-n3ccnc3)c(-n3cccc3)c2)C1` (centres unmarked) [CBK285372], for which the viability at 28.5 h, 10 µM amounted to 101%.
Turning to `C=CCNC(=O)CCc1nc(-c2cccc(OC)c2)no1` [CBK268981], the viability at 28.5 h, 10 µM turned out to be 99.2%.
Same read-out and setting: for `Cc1c(-c2cc(C(=O)NC(C)C3CC4CCC3C4)on2)cnn1C` (centres unmarked) [CBK281651] the value was 92.8%; for `CCc1nc2ccc(C(=O)N(C)CCN(C)C)cn2c1N(C)C(=O)Cc1ccccc1` [CBK146858], 90.8%.
On the same count and under the same terms, under `Cc1ccccc1-n1nc(C)c(CN2CCC(O)C(C)C2)c1C` (centres unmarked) [CBK282739] stands 84.2%; under `O=C(Nc1cccc(CCc2ccccn2)c1)c1ccc([N+](=O)[O-])cc1` [CBK269653], 86.9%.
For `CCn1nc(-c2ccccc2)nc2c(=O)n(C)c(=O)nc1-2` [CBK000921], the viability at 28.5 h, 10 µM (bulk resorufin, single well) is 92.1%.
Regarding `COc1ccc(-c2ccc(Nc3cccc(N(C)C)c3)nc2)cc1OC` [CBK037606], the viability at 28.5 h, 10 µM was 90%.
As for `O=C(c1ccc2[nH]nnc2c1)N1CCc2ccccc2C1` [CBK200332], the viability at 28.5 h, 10 µM was 103%.
Same read-out and setting: for `CC(Cn1cccn1)NS(=O)(=O)c1ccc(N2CCCC2=O)cc1` (centres unmarked) [CBK305606] the value was 83.7%.
Turning to `O=[N+]([O-])c1cccc(-c2ccc3c(c2)COC2(CCNCC2)O3)c1` [CBK060957], the viability at 28.5 h, 10 µM (bulk resorufin, single well) amounted to 105%.
As to `CCC(C)NC1=NC(=O)C(CC(=O)Nc2ccccc2Cl)S1` (centres unmarked) [CBK059133T], the viability at 28.5 h, 10 µM is 97.3%.
Same read-out and setting: under `CC(C)(C)OC(=O)N1Cc2ccccc2C[C@H]1C(=O)N1CCC(C(=O)O)CC1` [CBK286761] stands 94.1%; under `COc1ccccc1NC(=O)Cn1cnc2sc(C(=O)NC(C)C)c(C)c2c1=O` [CBK071847], 93%.
Consider `Cc1cc(C)nc(Nc2ccc(C3CCCN(S(=O)(=O)c4ccc(F)cc4)C3)nc2)n1` (centres unmarked) [CBK285987], for which the viability at 28.5 h, 10 µM turned out to be 86%.
On to `O=C(O)CCCNC(=O)C(O)(c1ccccc1)c1ccccc1` [CBK269156], for which, under “bulk resorufin, single well”, the viability at 28.5 h, 10 µM was 95.5%.
Turning to `CCOC(=O)C1CCN(S(=O)(=O)c2ccc(NC(=O)N3CCCC3)cc2)CC1` [CBK269823], the viability at 28.5 h, 10 µM is 100%.
On the same count and under the same terms, under `Cc1ccc(S(=O)(=O)NC(C)(C)CSc2ccccc2)cc1` [CBK268354] stands 88.6%.
In the case of `COc1ccc(-c2cnc(N)c(-c3ccc(C(=O)NCCO)cc3)n2)cn1` [CBK064147], the viability at 28.5 h, 10 µM was determined as 95.6%.
Consider `NC(=O)c1ccc(NCCCN2CCOCC2)c([N+](=O)[O-])c1` [CBK264443], for which the viability at 28.5 h, 10 µM came to 104%.
On the same count and under the same terms, for `CCCCN(/C=N/S(=O)(=O)c1ccccc1)CCCC` [CBK026576] the value was 92.2%; for `CC(=O)Nc1ccc(/C(C)=N/Nc2nc(N3CCCC3)nc(N3CCCC3)n2)cc1` [CBK021877], 89.3%; for `c1ccc(-n2ncc3c(N4CCCC4)ncnc32)cc1` [CBK287357], 86.6%.
For the compound `CC(=O)NC(NC(=S)Nc1sc2c(c1C#N)CCCC2)C(Cl)(Cl)Cl` (centres unmarked) [CBK261053], the viability at 28.5 h, 10 µM was 99.2%.
Consider `CC(C)c1ccnc(C(C)Sc2nc(N)c(Br)c(Cl)n2)c1` (centres unmarked) [CBK016828], for which the viability at 28.5 h, 10 µM was 86.1%.
Still for that read-out and setting: under `CCOC(=O)C(NC(=O)c1cc[nH]n1)c1cccc(C)c1C` (centres unmarked) [CBK304131] stands 85.5%; under `COCOc1ccc(-c2nc(-c3cccnc3)cnc2N)cc1` [CBK063999], 93.6%.
The same measure, in the same setting: under `O=C(Cc1cccs1)N1CCC(c2nnc(-c3ccccc3)c(-c3ccccc3)n2)CC1` [CBK286283] stands 98.8%; under `CC(C)(C)C(=O)/N=c1/[nH]nc(-c2cccnc2)s1` [CBK288203], 98.3%; under `COc1ccc2oc(=O)c(C(=O)Nc3cccc(O)c3)cc2c1` [CBK270070], 87.3%.
The same measure, in the same setting: under `O=C(O)C1(Cc2ccc(-c3cccs3)cc2)CCNC1` (centres unmarked) [CBK281679] stands 90.8%; under `COc1cccc(C(=O)NCCC(=O)N2CCc3sccc3C2)c1` [CBK305376], 108%; under `Cc1cc(C)c(C)c(S(=O)(=O)NCc2ccc(C(=O)Nc3ccncc3)cc2)c1C` [CBK267193], 90.5%.
On to `Cc1csc(C(=O)N2CCC(c3cc(O)cc(C)n3)CC2)c1` [CBK283466], for which the viability at 28.5 h, 10 µM worked out at 89%.
On to `Cc1cc(C)n(C(C)C(=O)N2CCC(Nc3cccnc3)CC2)n1` (centres unmarked) [CBK305917], for which the viability at 28.5 h, 10 µM stood at 94.2%.
For the compound `O=S(=O)(NCc1ccccc1)N1CCCCCC1` [CBK269569], the viability at 28.5 h, 10 µM turned out to be 101%.
Same read-out and setting: for `Cc1cc(C(=O)N(C)CC2(C)COC2)nc2ccccc12` [CBK281956] the value was 90.2%; for `O=C(O)CCCCc1nn(-c2ccc(Cl)c(Cl)c2)c2c1CCC2` [CBK012529], 97.5%.
Consider `C(=C\c1cccc(N2CCN(CCN3CCCC3)CC2)n1)/c1ccccc1` [CBK036853], for which the viability at 28.5 h, 10 µM came to 97.8%.
Same read-out and setting: for `Cc1csc(NC(=O)CSc2nnc3[nH]c(=O)cc(C)n23)n1` [CBK294413] the value was 81.7%.
As for `OC1(CN2CCCC2)CCN(Cc2sccc2Cl)CC1` [CBK307491], the viability at 28.5 h, 10 µM was found to be 105%.
As to `CCC(/C=C1\Oc2ccc(OC)cc2N1C)=C\c1sc2ccccc2[n+]1CCCS(=O)(=O)[O-]` [CBK261080], the viability at 28.5 h, 10 µM was determined as 90.3%.
On the same count and under the same terms, for `Cc1ccc(S(=O)(=O)c2cccc(S(=O)(=O)N3CCOCC3)c2)cc1S(=O)(=O)N1CCOCC1` [CBK262117] the value was 109%.
On to `CCN1CC2(CCC1=O)CCN(Cc1nncn1C(C)C)CC2` [CBK307460], for which the viability at 28.5 h, 10 µM came out at 107%.
On to `Cc1cccc2c1ncn1c(=O)n(CC(=O)Nc3cccc(Cl)c3)nc21` [CBK287815], for which the viability at 28.5 h, 10 µM was 81.8%.
Same read-out and setting: for `O=C(NCc1cccnc1)c1ccc(N2CCN(C(=O)c3ccccc3C(F)(F)F)CC2)nn1` [CBK153215] the value was 72.3%; for `CC(C)(CN1CCCC1)NC(=O)N1CCN(Cc2cccc(O)c2)CC1` [CBK307380], 86.6%.
In the case of `OCCC1CNCCN1CC1CCCCC1` (centres unmarked) [CBK270115], the viability at 28.5 h, 10 µM is 97.2%.
Same read-out and setting: under `CN(CCc1ccncc1)C(=O)c1[nH]nc2c1CCCCC2` [CBK283151] stands 96.9%.
The same measure, in the same setting: for `COc1ccccc1CNC(=O)c1cccc(C)c1[N+](=O)[O-]` [CBK265703] the value was 87.8%; for `O=C(CSc1ncn(-c2ccccc2)n1)Nc1ccc(F)c(Cl)c1` [CBK267313], 94.4%; for `Cc1cc(Cl)c(S(=O)(=O)Nc2ccc(C#N)cc2)cc1OCC(N)=O` [CBK266560], 112%.
Turning to `CN1CCC(N(C)Cc2coc3ccccc3c2=O)CC1` [CBK261578], the viability at 28.5 h, 10 µM is 103%.
The same measure, in the same setting: under `CC1CN(S(=O)(=O)C(C)C)CCC1NCc1ccncc1` (centres unmarked) [CBK304870] stands 89.6%; under `CCOc1ccccc1C(=O)Nc1cnc(-c2cccc(C)c2)c(-c2ccc(N)cc2)n1` [CBK036783], 107%; under `C=CCn1c(COc2cccc(Cl)c2)nnc1SCC(=O)O` [CBK269389], 90.2%.
Same read-out and setting: under `COc1cncc(-c2cnc3[nH]c(=O)n(C4CCCCC4)c3n2)c1` [CBK064230] stands 97.8%.
`OCCNc1nc(Nc2ccc(O)cc2)nc2ccccc12` [CBK266606C]: the viability at 28.5 h, 10 µM is 97.3%.
Consider `O=[N+]([O-])c1ccc(S(=O)(=O)Nc2cccc3[nH]ccc23)cc1` [CBK159550], for which the viability at 28.5 h, 10 µM came out at 87.1%.
In the case of `Cn1cc(NC(=O)c2ccc(COc3c(F)c(F)cc(F)c3F)o2)c(C(=O)O)n1` [CBK287014], the viability at 28.5 h, 10 µM is 98.5%.
Still for that read-out and setting: under `CCOc1ccc(-c2nc(CSc3n[nH]c(=O)n3CCc3ccccc3)cs2)cc1` [CBK296735] stands 94.7%; under `CCN1CCCC1CN(Cc1cnn(C)c1)Cc1ccco1` (centres unmarked) [CBK282470], 96.6%; under `CC(C)n1c(=O)n(CC(=O)N2CCCCCC2)c2cccnc21` [CBK283527], 92.4%.
For `Cc1ccc(S(=O)(=O)Nc2ccc(C(=O)O)cc2)cc1[N+](=O)[O-]` [CBK034055], the viability at 28.5 h, 10 µM was 94.8%.
In the case of `O=C(Cc1cccs1)N1CCC(c2nnc3n2CCCCC3)CC1` [CBK284606], the viability at 28.5 h, 10 µM worked out at 83.1%.
For `O=C(CSc1ccc(Cl)cc1)N1CCN(c2ccc([N+](=O)[O-])c(N3CCOCC3)c2)CC1` [CBK269670], the viability at 28.5 h, 10 µM was found to be 85.3%.
For `COC(=O)c1ccc(Cl)c(NC(=O)CSc2nnc(-c3ccncc3)[nH]2)c1` [CBK268702], the viability at 28.5 h, 10 µM was 105%.
The same measure, in the same setting: under `COc1cc2c(cc1OC)C(C)N(Cc1cc(C)c(O)c(C)c1)CC2` (centres unmarked) [CBK074659C] stands 99.9%; under `c1cc(CNCCN2CCOCC2)cs1` [CBK001894], 105%; under `O=C(CCn1cnc2ccccc21)N1CC[C@@H](c2ccccc2)[C@H](O)C1` [CBK283712], 102%.
